We go through five compounds from ChEMBL document CHEMBL1201862, “PubChem BioAssay data set” (2004).

The source made the active and inactive calls.

Assay [1] in a line: Trypanosoma cruzi growth suppression in host cells – NIH3T3 host cells, beta-gal luminescence, confirmation (AID 2044).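 Further: intracellular parasites grown in NIH/3T3 mouse fibroblasts as host cells; luminescent beta-galactosidase reporter signal from transgenic T. cruzi replicating inside host cells; inhibitors lower the luminescence signal.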 Type of assay: functional, cell-based.
The nature of assay [2]: NIH3T3 cell viability loss – ATP luminescence, mouse fibroblasts, counter-screen, dose response (AID 2010).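 Further: cells exposed to compound for about 90 hours before reading.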 The assay is classed as functional, cell-based. On the technique in general: The purpose of a counterscreen is to sort out artefacts and off-target activity.
The target in assay [3] is Dual specificity tyrosine-phosphorylation-regulated kinase 1A (Rattus norvegicus, UniProt Q63470). The assay is classed as biochemical, Homo sapiens.
Assay [4] deals with ADP-ribosylation factor GTPase-activating protein 1 (Rattus norvegicus, UniProt Q62848). The experiment in a line: Fluorescence polarization-based biochemical high throughput dose response screening assay to identify inhibitors of ADP-ribosylation factor GTPase activating protein 1 (ARFGAP1). Type of assay: functional. In general terms: Polarisation of emitted light reports the rotation of a fluorescent probe.

Assay [5] deals with FAD-linked sulfhydryl oxidase ALR (Homo sapiens, UniProt P55789). The assay can be described thus: ALR-catalysed DTT oxidation blockers – biochemical, H2O2 detection, luminescence, cherry-pick, dose response (AID 493248).
Assay [6] deals with Dual specificity protein kinase CLK1 (Homo sapiens, UniProt P49759). The experiment in a line: inhibition of human CLK1 activity – biochemical, cherry-picked samples, selectivity assay for Dyrk1A inhibitor project, dose response (AID 588811).
Assay [7] relates to HEK293. The experiment in a line: inhibition of NOD1-driven NF-kB reporter – cell-based, luminescence, uHTS, primary screen (AID 1578). Conditions: Homo sapiens. Type of assay: functional.
Assay [8] has as its system HEK293. The experiment in a line: cells. Type of assay: functional, cell-based. As to conditions: Homo sapiens.
The subject of assay [9] is HEK293. The experiment in a line: cells. Type of assay: functional, cell-based. Conditions: Homo sapiens. The source holds these as a separate data set.
Assay [10] concerns the target Nucleotide-binding oligomerization domain-containing protein 2 (Homo sapiens, UniProt Q9HC29). The experiment in a line: inhibition of NOD2-driven NF-kB reporter – cell-based, luminescence, uHTS, HEK293 (AID 1566). The assay is classed as functional.
Assay [11] concerns HEK293. The assay can be described thus: NOD2 signaling inhibitors in MDP-stimulated cells, cell-based, uHTS, luminescence (AID 2001). Conditions: Homo sapiens. The assay is classed as functional.
Assay [12] has as its system HEK293. The assay can be described thus: cells. Type of assay: functional, cell-based. Conditions: Homo sapiens. This is another data set of the same source.
The target of assay [13] is T1, Short transient receptor potential channel 4 (Mus musculus, UniProt Q9QUQ5).
T1 sequence (Q9QUQ5 whole entry): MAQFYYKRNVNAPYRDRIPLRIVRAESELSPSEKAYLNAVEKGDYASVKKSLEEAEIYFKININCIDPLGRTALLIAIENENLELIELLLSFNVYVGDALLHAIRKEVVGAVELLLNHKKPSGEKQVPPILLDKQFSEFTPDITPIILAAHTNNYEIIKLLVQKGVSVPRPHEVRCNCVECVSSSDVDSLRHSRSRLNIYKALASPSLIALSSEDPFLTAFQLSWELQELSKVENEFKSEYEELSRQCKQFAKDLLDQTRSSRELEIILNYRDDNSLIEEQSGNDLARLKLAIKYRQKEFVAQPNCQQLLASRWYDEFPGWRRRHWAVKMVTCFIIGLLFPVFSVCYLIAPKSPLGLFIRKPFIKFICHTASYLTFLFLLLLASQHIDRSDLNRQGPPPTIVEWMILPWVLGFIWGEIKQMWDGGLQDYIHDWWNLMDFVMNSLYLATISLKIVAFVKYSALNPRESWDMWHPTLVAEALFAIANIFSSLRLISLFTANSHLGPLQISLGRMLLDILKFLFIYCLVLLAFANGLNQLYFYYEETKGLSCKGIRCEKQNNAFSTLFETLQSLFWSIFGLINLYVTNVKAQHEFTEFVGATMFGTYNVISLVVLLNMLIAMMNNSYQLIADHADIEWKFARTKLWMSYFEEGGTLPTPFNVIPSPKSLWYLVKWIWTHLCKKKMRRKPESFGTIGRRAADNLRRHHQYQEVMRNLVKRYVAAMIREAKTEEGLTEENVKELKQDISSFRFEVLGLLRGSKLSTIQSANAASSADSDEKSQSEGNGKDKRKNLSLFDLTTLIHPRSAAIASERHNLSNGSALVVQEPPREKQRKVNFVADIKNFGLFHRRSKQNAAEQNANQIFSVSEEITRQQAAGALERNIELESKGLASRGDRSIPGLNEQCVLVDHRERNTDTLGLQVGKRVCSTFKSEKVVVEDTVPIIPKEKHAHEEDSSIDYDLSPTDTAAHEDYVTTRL
The experiment in a line: block of DAMGO-driven TRPC4 calcium entry – cell-based, HEK293 TRPC4/mu-opioid, Fluo-4 calcium, dose response (AID 434942).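 Further: potency of inhibitors blocking the TRPC4 calcium response.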 Type of assay: functional.

The target of assay [14] is Delta-type opioid receptor (Homo sapiens, UniProt P41143). The experiment in a line: Counterscreen for agonists of heterodimerization of the mu 1 (OPRM1) and delta 1 (OPRD1) opioid receptors: Luminescence-based cell-based high throughput dose response assay to identify agonists of OPRD1 homodimerization. [Related pubchem assays (depositor defined):AID504326, AID504355, AID504692, AID504904, AID504905]. The assay is classed as functional.

Another assay concerns the target Mu-type opioid receptor (Homo sapiens, UniProt P35372). The experiment in a line: Counterscreen for agonists of heterodimerization of the mu 1 (OPRM1) and delta 1 (OPRD1) opioid receptors: Luminescence-based cell-based high throughput dose response assay to identify agonists of OPRM1 homodimerization. The assay is classed as functional.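 Further: U2OS cells expressing OPRM1 and beta-arrestin as split beta-galactosidase partners.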
Assay [15] has as its target 5-hydroxytryptamine receptor 5A (Homo sapiens, UniProt P47898). The assay can be described thus: Counterscreen for agonists of OPRM1-OPRD1 heterodimerization: luminescence-based cell-based high throughput dose response assay to identify agonists of 5-hydroxytryptamine (serotonin) 5A receptor (HTR5A). [Related pubchem assays (depositor defined):AID504326, AID504355, AID504692, AID504904, AID504905]. Type of assay: functional.

A short description of assay [16]: decrease of insulin promoter-GFP reporter – imaging, high-content screening, mouse beta cells (AID 1628). Type of assay: functional. As to conditions: MIN6.
Assay [17] in a line: MIN6 cell viability loss – mouse insulinoma, cytotoxicity control, dose response (AID 2122).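 Further: confirmatory high-throughput counterscreen run to flag cytotoxic compounds.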 The assay is classed as functional.
In the next assay the target is Tumor necrosis factor (Homo sapiens, UniProt P01375). The assay can be described thus: analog potency on TNFa NF-kB signaling – cell-based, revised, SAR follow-up (AID 2337). The assay is classed as functional.
Assay [18] addresses Nucleotide-binding oligomerization domain-containing protein 1 (Homo sapiens, UniProt Q9Y239). The experiment in a line: blockers of NOD1 pathway activity – revised, SAR follow-up (AID 2333). The assay is classed as functional.
The nature of assay [19]: HEK-293T viability loss after treatment – luminescence, T-cell screen hits, cytotoxicity control for TCR NF-kB inhibitor project, dose response (AID 489026).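 Further: cells exposed to compound about 14 hours before the viability readout.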 Type of assay: functional, cell-based.
Assay [20] is described as follows: reduction of Shn3 3'UTR-driven luciferase in osteoblasts – cell-based, Clone20 osteoblasts, firefly luciferase, cherry-picked, dose response (AID 624132).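 Further: firefly luciferase luminescence from reporter carrying the Shn3 3'UTR in osteoblasts.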 The assay is classed as functional.
The nature of assay [21]: loss of viability in HepG2 cells – cell-based, CellTiter-Glo, cherry-picked, cytotoxicity control for Shn3 inhibitor project, dose response (AID 624134). The assay is classed as functional. In general terms: In ATP-based viability assays light output follows the ATP content of the culture.
The nature of assay [22]: non-specific 3'UTR reporter inhibition in Clone20-Shn3RL – cell-based, Renilla luciferase, cherry-picked, counter-screen for Shn3 inhibitor project, dose response (AID 624133). The assay is classed as functional.
Assay [23] has as its system HEK293. The assay can be described thus: cells. Conditions: Homo sapiens.

Sequence of Mu-type opioid receptor (P35372 whole entry): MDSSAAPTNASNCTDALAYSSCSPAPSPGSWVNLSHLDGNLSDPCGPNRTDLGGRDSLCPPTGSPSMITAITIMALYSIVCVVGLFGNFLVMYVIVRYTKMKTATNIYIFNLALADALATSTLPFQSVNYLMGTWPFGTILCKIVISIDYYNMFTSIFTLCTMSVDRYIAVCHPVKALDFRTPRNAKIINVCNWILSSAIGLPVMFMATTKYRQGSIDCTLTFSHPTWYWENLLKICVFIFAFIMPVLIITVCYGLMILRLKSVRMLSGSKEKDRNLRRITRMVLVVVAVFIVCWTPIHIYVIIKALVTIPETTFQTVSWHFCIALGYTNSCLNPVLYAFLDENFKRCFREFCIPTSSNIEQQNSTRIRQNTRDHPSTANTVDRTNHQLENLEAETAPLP
Sequence of Delta-type opioid receptor (P41143 whole entry): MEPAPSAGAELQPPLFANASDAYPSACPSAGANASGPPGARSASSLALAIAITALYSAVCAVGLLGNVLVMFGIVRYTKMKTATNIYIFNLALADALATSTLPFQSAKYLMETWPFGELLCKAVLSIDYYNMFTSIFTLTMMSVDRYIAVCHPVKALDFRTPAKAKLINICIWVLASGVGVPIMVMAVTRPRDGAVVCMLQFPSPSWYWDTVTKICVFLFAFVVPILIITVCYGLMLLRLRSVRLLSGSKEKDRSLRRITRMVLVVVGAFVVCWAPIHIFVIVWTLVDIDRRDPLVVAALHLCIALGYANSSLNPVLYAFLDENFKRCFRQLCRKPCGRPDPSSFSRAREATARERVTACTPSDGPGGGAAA
Sequence of 5-hydroxytryptamine receptor 5A (P47898 whole entry): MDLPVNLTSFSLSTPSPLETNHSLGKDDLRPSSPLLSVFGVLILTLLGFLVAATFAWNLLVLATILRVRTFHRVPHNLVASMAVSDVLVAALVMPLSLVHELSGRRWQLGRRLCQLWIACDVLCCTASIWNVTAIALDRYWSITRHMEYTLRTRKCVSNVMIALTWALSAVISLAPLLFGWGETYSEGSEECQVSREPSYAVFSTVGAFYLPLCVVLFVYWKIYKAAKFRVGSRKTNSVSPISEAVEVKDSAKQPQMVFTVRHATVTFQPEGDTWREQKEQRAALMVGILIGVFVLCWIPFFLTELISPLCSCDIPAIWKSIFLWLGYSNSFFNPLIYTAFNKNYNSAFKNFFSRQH
Sequence of Dual specificity protein kinase CLK1 (P49759 whole entry): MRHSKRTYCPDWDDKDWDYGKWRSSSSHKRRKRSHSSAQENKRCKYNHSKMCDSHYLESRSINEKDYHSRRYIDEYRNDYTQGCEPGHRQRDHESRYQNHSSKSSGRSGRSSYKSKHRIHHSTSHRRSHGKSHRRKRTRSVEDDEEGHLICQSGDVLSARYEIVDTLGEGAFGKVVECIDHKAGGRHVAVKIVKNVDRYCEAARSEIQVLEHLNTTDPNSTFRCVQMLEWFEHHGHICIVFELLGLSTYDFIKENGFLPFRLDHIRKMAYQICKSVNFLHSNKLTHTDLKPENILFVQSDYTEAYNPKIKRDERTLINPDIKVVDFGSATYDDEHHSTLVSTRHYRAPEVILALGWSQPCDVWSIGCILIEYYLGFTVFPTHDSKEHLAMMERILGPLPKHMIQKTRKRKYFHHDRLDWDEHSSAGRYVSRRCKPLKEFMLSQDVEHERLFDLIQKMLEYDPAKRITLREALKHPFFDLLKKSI
Sequence of ADP-ribosylation factor GTPase-activating protein 1 (Q62848 whole entry): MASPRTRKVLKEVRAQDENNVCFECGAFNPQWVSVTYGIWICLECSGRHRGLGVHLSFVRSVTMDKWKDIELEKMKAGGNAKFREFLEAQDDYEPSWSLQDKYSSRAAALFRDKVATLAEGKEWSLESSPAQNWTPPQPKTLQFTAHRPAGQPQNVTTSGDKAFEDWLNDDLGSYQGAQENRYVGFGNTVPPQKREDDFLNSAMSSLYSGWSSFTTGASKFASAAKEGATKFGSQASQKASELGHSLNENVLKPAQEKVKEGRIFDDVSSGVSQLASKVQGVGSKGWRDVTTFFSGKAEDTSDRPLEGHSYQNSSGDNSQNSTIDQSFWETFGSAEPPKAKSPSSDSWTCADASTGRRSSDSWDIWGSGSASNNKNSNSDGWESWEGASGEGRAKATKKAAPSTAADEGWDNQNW
Sequence of Nucleotide-binding oligomerization domain-containing protein 1 (Q9Y239 whole entry, the tested form may be a part): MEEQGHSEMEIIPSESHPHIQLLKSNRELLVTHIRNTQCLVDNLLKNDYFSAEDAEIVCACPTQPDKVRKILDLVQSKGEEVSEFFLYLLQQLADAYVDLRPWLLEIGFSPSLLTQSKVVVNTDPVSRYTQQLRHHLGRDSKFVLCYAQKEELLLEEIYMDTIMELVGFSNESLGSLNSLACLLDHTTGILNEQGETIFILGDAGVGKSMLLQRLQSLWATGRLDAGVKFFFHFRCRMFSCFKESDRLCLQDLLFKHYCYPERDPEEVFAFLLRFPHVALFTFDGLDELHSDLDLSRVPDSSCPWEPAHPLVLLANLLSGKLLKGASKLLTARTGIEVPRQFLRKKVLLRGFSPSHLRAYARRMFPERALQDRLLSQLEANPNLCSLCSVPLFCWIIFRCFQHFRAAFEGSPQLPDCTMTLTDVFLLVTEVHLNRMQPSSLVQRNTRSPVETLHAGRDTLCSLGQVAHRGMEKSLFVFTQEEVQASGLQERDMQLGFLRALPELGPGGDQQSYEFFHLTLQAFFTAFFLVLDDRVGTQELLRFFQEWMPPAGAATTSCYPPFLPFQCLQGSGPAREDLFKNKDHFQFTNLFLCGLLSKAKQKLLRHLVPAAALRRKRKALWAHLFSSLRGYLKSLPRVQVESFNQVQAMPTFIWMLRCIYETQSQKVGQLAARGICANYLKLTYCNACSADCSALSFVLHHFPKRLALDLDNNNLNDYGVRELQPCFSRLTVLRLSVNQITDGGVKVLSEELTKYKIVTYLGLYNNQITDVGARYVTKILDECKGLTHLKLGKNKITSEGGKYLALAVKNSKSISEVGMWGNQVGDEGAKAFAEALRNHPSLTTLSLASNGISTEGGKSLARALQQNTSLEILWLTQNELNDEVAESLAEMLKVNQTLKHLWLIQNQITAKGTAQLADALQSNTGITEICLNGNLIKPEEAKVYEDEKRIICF
Sequence of Tumor necrosis factor (P01375 whole entry, the tested form may be a part): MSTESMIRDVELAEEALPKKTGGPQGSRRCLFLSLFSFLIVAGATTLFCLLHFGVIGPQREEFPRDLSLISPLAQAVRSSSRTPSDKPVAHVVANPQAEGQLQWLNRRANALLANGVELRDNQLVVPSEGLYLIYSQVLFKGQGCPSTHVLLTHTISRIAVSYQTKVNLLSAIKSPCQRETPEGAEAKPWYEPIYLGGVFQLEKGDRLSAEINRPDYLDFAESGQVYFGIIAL
Sequence of Nucleotide-binding oligomerization domain-containing protein 2 (Q9HC29 whole entry, the tested form may be a part): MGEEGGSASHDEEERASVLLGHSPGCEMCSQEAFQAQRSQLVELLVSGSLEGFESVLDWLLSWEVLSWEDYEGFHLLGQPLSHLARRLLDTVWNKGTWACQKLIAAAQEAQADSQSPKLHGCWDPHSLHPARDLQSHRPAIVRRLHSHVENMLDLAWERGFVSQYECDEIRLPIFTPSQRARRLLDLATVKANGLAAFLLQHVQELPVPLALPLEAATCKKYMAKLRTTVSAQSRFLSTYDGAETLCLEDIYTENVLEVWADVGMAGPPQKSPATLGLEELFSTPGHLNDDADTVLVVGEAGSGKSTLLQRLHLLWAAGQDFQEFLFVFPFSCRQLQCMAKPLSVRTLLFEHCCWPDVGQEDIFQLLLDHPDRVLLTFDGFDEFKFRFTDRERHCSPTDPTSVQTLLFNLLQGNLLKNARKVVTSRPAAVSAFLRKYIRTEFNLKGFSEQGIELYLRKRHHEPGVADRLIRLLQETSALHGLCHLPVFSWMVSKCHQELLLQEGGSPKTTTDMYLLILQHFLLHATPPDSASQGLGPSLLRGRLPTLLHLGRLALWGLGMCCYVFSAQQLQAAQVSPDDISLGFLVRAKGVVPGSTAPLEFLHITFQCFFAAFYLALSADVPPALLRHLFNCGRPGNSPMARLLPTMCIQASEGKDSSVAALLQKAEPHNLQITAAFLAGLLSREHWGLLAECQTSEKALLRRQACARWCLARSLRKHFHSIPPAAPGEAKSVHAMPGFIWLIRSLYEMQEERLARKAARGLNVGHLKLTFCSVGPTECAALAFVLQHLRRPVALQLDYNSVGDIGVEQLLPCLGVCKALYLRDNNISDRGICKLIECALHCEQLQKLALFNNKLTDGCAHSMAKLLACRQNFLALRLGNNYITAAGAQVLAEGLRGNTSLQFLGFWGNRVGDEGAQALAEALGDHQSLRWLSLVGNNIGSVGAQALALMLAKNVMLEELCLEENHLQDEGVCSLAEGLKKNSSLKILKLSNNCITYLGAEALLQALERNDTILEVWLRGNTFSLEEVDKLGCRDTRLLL
Sequence of FAD-linked sulfhydryl oxidase ALR (P55789 whole entry): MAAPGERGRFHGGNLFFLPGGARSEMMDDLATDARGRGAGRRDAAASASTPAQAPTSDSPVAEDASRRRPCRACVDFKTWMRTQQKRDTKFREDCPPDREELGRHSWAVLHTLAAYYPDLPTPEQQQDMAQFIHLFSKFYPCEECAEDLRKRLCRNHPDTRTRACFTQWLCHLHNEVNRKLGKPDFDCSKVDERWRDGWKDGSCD

The term EC50 denotes the concentration giving half of the maximal effect. For orientation: AC50 means the concentration giving half of the maximal activity seen. In general, IC50 refers to the concentration at which inhibition is half-maximal. For the compound `O=C(/C=C/c1ccccc1)Nc1nc(-c2ccncc2)cs1`, the EC50 in [1] is 0.843 µM (active); in [2], 17.6 µM (active). In addition, in [3], the AC50 was 0.103 µM (active). Besides, in assay [4], the IC50 was 28.8 µM (inactive).
On to `NC(=O)c1c(NC(=O)c2ccc(N3C(=O)CCC3=O)cc2)sc2c1CCCC2`, for which the half-maximal activity concentration (AC50) in assay [5] is 0.165 µM (active); in assay [6], 0.853 µM (active); in assay [3], 3.9 µM (active).
Regarding `Cc1nc(N2CCN(c3ccccn3)CC2)c2c(C)c(C(=O)N3CCN(c4ccc(F)cc4)CC3)sc2n1`, the EC50 in the assay on HEK293 [7] was 6.14 µM (active); in assay [10], 5.26 µM (active); in assay [13] it was 1.19 µM (active); in [14] it was > 92.4 µM (inactive); on Mu-type opioid receptor it was 10.8 µM (inactive); in assay [15] it was > 92.4 µM (inactive). For the same compound, the IC50 in the assay on HEK293 [8] was 6.02 µM (active); in the assay with HEK293 [9], > 20 µM (inactive); in the assay with HEK293 [11] it was 6.95 µM (active); with HEK293 [12], 17.1 µM (active).
Turning to `O=C(OC1C2CCC1C1CN(CCc3ccccc3)CC12)c1ccccc1` (stereo not given), the EC50 was 3.35 µM (active) in assay [13], > 92.5 µM (inactive) in [14], > 92.5 µM (inactive) at Mu-type opioid receptor and > 92.5 µM (inactive) in assay [15].
As for `O=C(Nc1ccc(S(=O)(=O)N2CCCC2)cc1)c1ccc(CN2CCc3ccccc3C2)cc1`, the IC50 in [16] was 0.707 µM (active); in assay [17], 0.576 µM (active); at Tumor necrosis factor, 0.639 µM (active); in assay [18], 0.418 µM (active); in [19], > 80 µM (inactive); in the assay on HEK293 [23], 6.77 µM (active). The AC50 in [20] is 0.575 µM (active); in [21] it was 0.292 µM (active); in [22], 0.406 µM (active).
